Structures are written as SMILES. Values after ≈ are worked out from the molar mass of the structure shown. Some results are limits rather than exact numbers.

Data set [1] in a line: Aqueous solubility determination (Millipore Multiscreen solubility filter plate, UV/vis). Type of data set: physicochemical. The following applies: kinetic from dmso stock; Universal Aqueous Buffer pH 7.4, 90 minutes at room temperature. The protocol: Aqueous Solubility Determination. The following procedure was used to obtain the aqueous solubility results summarized in Example 4. Step 1. Determination of optimal UV/vis wavelengths and generation of standard curves for a compound of interest: • (1) For eight standard calibration curves (one plate), prepare 34 mL of 50:50 (v:v) universal buffer:acetonitrile in a 50 mL tube. • (2) Using a multichannel pipet, dispense (in μL) the buffer:acetonitrile in a deep well plate as follows:
• (3) Using a multichannel pipet, dispense DMSO into the same plate as follows:
• (4) Add 10 mM compound in DMSO into the plates as follows:
• (5) Mix columns 1 and 2 by pipetting each up and down 10 times. Mix columns 3 and 4 by pipetting up and down 10 times. Serially dilute as follows (pipet up and down 10 times after each transfer):
• (6) Cover plate with lid and shake (200-300 rpm) at room temperature for 20 minutes. • (7) Mix all wells by pipetting up and down 10 times. • (8) Transfer 120 μL from each well to a UV transparent plate. Cover and shake for 3-5 minutes. Remove any bubbles in the wells using a pipet. • (9) Read from 220 nm to 500 nm at 10 nm increments on a spectrophotometer (e.g., SpectraMax®).
Step 2. Compound Solubility Testing Procedures using the Millipore™ Multiscreen® Solubility Filter Plate. […]
Solubility Protocol: • (a) Add 285 μL of Universal Aqueous Buffer to desired wells of the Millipore™ Multiscreen® Solubility filter plate. • (b) Add 15 μL of 10 mM compound in DMSO to the appropriate wells. […] Remove any bubbles with a pipet. • (i) Measure the absorbance of each well in the plate on the spectrophotometer (UV/vis) at the desired wavelength. For compounds in a plate with different absorbance peaks, set the spectrophotometer to read a spectrum (e.g., from 220 nm to 460 nm). • (j) Identify concentration using measured absorbance for each compound and the predetermined standard curve (see Step 1).

The test system of data set [2] is IFNγ-induced NO production in RAW264.7 macrophages. As to the kind of experiment: Suppression of IFNγ-induced NO production (Griess reagent). It is filed as cell-based, mouse. The following applies: Mus musculus; RAW264.7, 20 ng/ml IFNγ for 24 hours, 2 hours pre-treatment. Here is the method:
(§1) FIGS. 1-11 and 22. Inhibition of NO Production. RAW264.7 macrophages were pre-treated with DMSO or drugs at various concentrations (nM) for 2 hours, then treated with 20 ng/ml IFNγ for 24 hours. NO concentration in media was determined using a Griess reagent system; cell viability was determined using WST-1 reagent. Nitric Oxide production and cell viability. RAW264.7 macrophages were pre-treated with DMSO or drugs for 2 hours, then treated with recombinant mouse IFNγ (Sigma) for 24 hours. NO concentration in media was determined using the Griess reagent system (Promega). Cell viability was determined using WST-1 reagent (Roche).
For orientation: The Griess reaction detects nitrite, a stable product of nitric oxide.

For another data set, the system named is RAW264.7 macrophages. Nature of the data set: Cell viability (WST-1 reagent). Type of data set: cell-based, mouse. The following applies: Mus musculus, RAW264.7, 20 ng/ml IFNγ. The protocol: as §1
For orientation: Tetrazolium assays rely on reduction of a dye to a coloured formazan, in cell work by metabolically active cells.

As for `CC1(C)CC[C@]2(C(=O)NCC(F)(F)F)CC[C@]3(C)[C@H](C(=O)C=C4[C@@]5(C)C=C(C#N)C(=O)C(C)(C)[C@@H]5CC[C@]43C)[C@@H]2C1` [Compound 63102, reference compound], the solubility at 90 min in data set [1] was determined as 0.06 µM (≈ 0.0344 µg/mL).
The molecule `CC1(C)CC[C@]2(N)CC[C@]3(C)[C@H](C(=O)C=C4[C@@]5(C)C=C(C#N)C(=O)C(C)(C)[C@@H]5CC[C@]43C)[C@@H]2C1` [Compound 63198] gave a solubility at 90 min in data set [1] of 164 µM (≈ 75.7 µg/mL).
On the same count and under the same terms, the same measure for `COC(=O)[C@]12CCC(C)(C)C[C@H]1[C@H]1C(=O)C[C@@H]3[C@@]4(C)C=C(C#N)C(=O)C(C)(C)[C@@H]4CC[C@@]3(C)[C@]1(C)CC2` [Compound 63219]: 13.6 µM (≈ 6.89 µg/mL).
With `COCOC[C@@]1(C)C(=O)C(C#N)=C[C@]2(C)C3=CC(=O)[C@@H]4[C@@H]5CC(C)(C)CC[C@]5(C(=O)OC)CC[C@@]4(C)[C@]3(C)CC[C@@H]12` [Compound 63302, (4aS,6aR,6bS,8aR,9S,12aS,14aR,14bS)-methyl 11-cyano-9-((methoxymethoxy)methyl)-2,2,6a,6b,9,12a-hexamethyl-10,14-dioxo-1,2,3,4,4a,5,6,6a,6b,7,8,8a,9,10,12a,14,14a,14b-octadecahydropicene-4a-carboxylate], the IC50 was about 18 nM in data set [2] and about 100 nM with RAW264.7 macrophages.
For `COC(=O)[C@]12CCC(C)(C)C[C@H]1[C@H]1C(=O)C=C3[C@@]4(C)C=C(C#N)C(=O)C(C)(C)[C@@H]4[C@H](O)C[C@@]3(C)[C@]1(C)CC2` [Compound 63307, (4aS,6aR,6bS,8R,8aR,12aS,14aR,14bS)-methyl 11-cyano-8-hydroxy-2,2,6a,6b,9,9,12a-heptamethyl-10,14-dioxo-1,2,3,4,4a,5,6,6a,6b,7,8,8a,9,10,12a,14,14a,14b-octadecahydropicene-4a-carboxylate], the IC50 in data set [2] was about 60 nM; in the data set on RAW264.7 macrophages it was over 200 nM.
With `COC(=O)[C@]12CCC(C)(C)C[C@H]1[C@H]1C(=O)C=C3[C@@]4(C)C=C(C#N)C(=O)C(C)(C)[C@@H]4C(=O)C[C@@]3(C)[C@]1(C)CC2` [Compound 63309, (4aS,6aR,6bS,8aR,12aS,14aR,14bS)-methyl 11-cyano-2,2,6a,6b,9,9,12a-heptamethyl-8,10,14-trioxo-1,2,3,4,4a,5,6,6a,6b,7,8,8a,9,10,12a,14,14a,14b-octadecahydropicene-4a-carboxylate], the IC50 in data set [2] is about 12 nM; in the data set with RAW264.7 macrophages, over 200 nM.
With `COC(=O)[C@]12CCC(C)(C)C[C@H]1[C@H]1C(=O)C=C3[C@@]4(C)[C@@H](O)[C@](O)(C#N)C(=O)C(C)(C)[C@@H]4CC[C@@]3(C)[C@]1(C)CC2` [Compound 63316, (4aS,6aR,6bS,8aR,11R,12R,12aS,14aR,14bS)-methyl 11-cyano-11,12-dihydroxy-2,2,6a,6b,9,9,12a-heptamethyl-10,14-dioxo-1,2,3,4,4a,5,6,6a,6b,7,8,8a,9,10,11,12,12a,14,14a,14b-icosahydropicene-4a-carboxylate], the IC50 in data set [2] is about 80 nM; in the data set with RAW264.7 macrophages, over 200 nM.

In general, solubility refers to the concentration that dissolves in the medium under given conditions. Broadly, the IC50 is the midpoint of a concentration-inhibition curve.

Source of the values: patent US20120238767A1, “ANTIOXIDANT INFLAMMATION MODULATORS: NOVEL DERIVATIVES OF OLEANOLIC ACID” (priority 2008, published 2012).
